Measured values reported in US20160061820A1, “IN VITRO BILIARY EXCRETION ASSAY” (HUREL CORPORATION, priority 2014, published 2016).
Where two headings read alike, the source gives them in different places. Each block holds one compound with its values, some of them ahead of it.

Columns and labels:
[1] = test system: bile canaliculi; experiment: Disruption of canaliculi, CDFDA staining (Example 3); format: cell-based, human; conditions: 5 uM CDFDA with 10 uM LatA, 20 min
Description: In the second method, the cultures were exposed to buffer containing latranculin A (LatA). The LatA functions to disrupt microfilament organization, a key step in tight junction formation, which allows bile present in the canaliculi to escape. Cells were first washed twice in HBSS buffer with Ca+. Cells were then incubated with 5 uM CDFDA in HBSS buffer with Ca+ and 10 uM LatA for 20 min. Cells were then washed two times in HBSS buffer with Ca+.

[2] = in vitro; conditions: rat, hepatocytes
Description: (§1) The single well method of assessing biliary clearance of the invention was used.
(§2) The media was then removed (collection #1) and stored for analysis of remaining compound. […] At the end of the incubation period the culture media was collected (collection #4). The cells were then exposed to deionized water which functions to disrupt the cellular membrane and release the compound accumulated in the cellular compartment (collection #5). Because any compound present in the canaliculi was already collected in collection #4, collection #5 contains any compound present in the cell but not including any present in the canaliculi. […] The data is presented in FIG. 9-13 using the same format as used in FIGS. 4-8.
(§3) Equation 2 was used to calculate the BEI for each compound in this system.

[3] = test system: cryopreserved human hepatocytes in sandwich culture; conditions: cited from earlier work
[4] = in vitro; conditions: hepatocytes
Description: as §1
(§4) A coculture was exposed to each tested compound in culture media at the indicated concentration for 20 minutes. The media was then removed (collection #1) and stored for analysis of remaining compound. The cultures were washed twice with buffer solution (collections #2 and #3) and each wash solution was stored for analysis of remaining taurcholate. […] This releases taurcholate accumulated in the bile of the canaliculi. At the end of the incubation period the culture media was collected (collection #4). The cells were then exposed to deionized water which functions to disrupt the cellular membrane and release the compound accumulated in the cellular compartment (collection #5). Because any compound present in the canaliculi was already collected in collection #4, collection #5 contains any compound present in the cell but not including any present in the canaliculi.
(§5) In teach figure the measured amount of compound in bile and the measured amount of compound in the cytoplasm are presented together as two parts of a single bar on the left side of the figure. The measured value for the bile is also shown as a bar on the right side of the figure. Comparing the height of the right bar (bile) to the height of the composite left bar (total of cytoplasm+bile) allows visulation of the portion of the compound that accumulated in the bile. […] Equation 2 was used to calculate the BEI for each compound in this system. The data were used to calculate the Biliary Clearance (Equation 1) and BEI (Equation 2) for each tested compound.

[5] = Lundquist (2014); cited from earlier work
[6] = test system: cultured rat hepatocytes; experiment: in vitro
Description: as §1, §2, §3

[7] = test system: cultured human hepatocytes; experiment: in vitro
Description: as §1, §4, §5

[8] = test system: primary human hepatocytes grown in a hepatocyte-stromal cell coculture
Description: (§6) Accumulation in the bile and accumulation in the cell were measured separately in a single well of a coculture plate. The measured values for bile accumulation and cell accumulation are shown as separately shaded portions of a single bar. The error bars represent a single standard deviation.
as §6, with “FIG. 18 compares the results of three independent experiments measuring biliary uptake of pravastatin by primary human hepatocytes grown in a hepatocyte-stromal cell coculture. Accumulation” for “Accumulation”

[9] = Bi et al. (2006), two culture method

Structure (SMILES): C/C1=C/C(=O)O[C@@H]2C[C@@H](CC[C@H](C)/C=C\C=C\CC1)O[C@@](O)([C@@H]1CSC(=O)N1)C2 [LatA, latrunculin A]
CDA staining of canaliculi [1]: no CDA staining was apparent

Structure (SMILES): C[C@H]1O[C@@H](O[C@H]2[C@@H](O)C[C@H](O[C@H]3[C@@H](O)C[C@H](O[C@H]4CC[C@@]5(C)[C@H](CC[C@@H]6[C@@H]5C[C@@H](O)[C@]5(C)[C@@H](C7=CC(=O)OC7)CC[C@]65O)C4)O[C@@H]3C)O[C@@H]2C)C[C@H](O)[C@@H]1O [digoxin]
microsomal CLint [2]: 0.31 ± 0.02 µL/min/mg
Uptake Rate [3, 9]: 0.7-1.5 pmol/min/mg protein
microsomal CLint ([4]; human): 0.4 µL/min/mg

Structure (SMILES): C[C@]12CC[C@@H]3c4ccc(O)cc4CC[C@H]3[C@@H]1CC[C@@H]2O[C@@H]1O[C@H](C(=O)O)[C@@H](O)[C@H](O)[C@H]1O [estradiol-glucuronide]
Rat In Vitro PK Intrinsic CLint, biliary ([6]; rat, hepatocytes): 2.7 ± 0.1 μl/min/mg protein
Biliary Excretion Index (BEI) [3, 9]: 37%
Uptake Rate [3]: 2.2 pmol/min/mg protein
microsomal CLint [3]: 1.8 µL/min/mg
microsomal CLint [7]: 0.3 µL/min/mg

Structure (SMILES): C[C@H](CCC(=O)NCCS(=O)(=O)O)[C@H]1CC[C@H]2[C@@H]3[C@H](O)C[C@@H]4C[C@H](O)CC[C@]4(C)[C@H]3C[C@H](O)[C@]12C [taurocholate, taurocholic acid]
BEI ([6]; rat hepatocyte coculture, compound 2 uM (pravastatin 5 uM), 20 min, latrunculin 5 uM 30 min): 60%
Rat In Vitro PK Predicted CLbiliary ([6]; scaled from Clint,bile with 200 mg protein/g liver and 40 g liver/kg): 67.1 ± 4.8 mL/min/kg
microsomal CLint [4]: 23 µL/min/mg
Bile accumulation, Mean ([8]; Exp. 1): 541.90
Bile accumulation, Mean ([8]; Exp. 2): 556.08
Bile accumulation, Mean ([8]; Exp. 3): 543.31

The next lines start with results.

microsomal CLint [2]: 3.5 ± 0.3 µL/min/mg
Fold Difference ([6]; rat): 0.6
microsomal CLint ([4]; human): 6 µL/min/mg
Structure (SMILES): CC(C)c1nc(N(C)S(C)(=O)=O)nc(-c2ccc(F)cc2)c1/C=C/[C@@H](O)C[C@@H](O)CC(=O)O [rosuvastatin]
Rat In Vivo PK In Vivo CLbiliary [5]: 48.0 ± 10.8 mL/min/kg
Biliary Excretion Index (BEI) [3, 9]: 43-58%
Uptake Rate [3, 9]: 15-26 pmol/min/mg protein

microsomal CLint [2]: 0.29 ± 0.02 µL/min/mg
microsomal CLint ([4]; human): 0.38 µL/min/mg
Structure (SMILES): CC[C@H](C)C(=O)O[C@H]1C[C@H](O)C=C2C=C[C@H](C)[C@H](CC[C@@H](O)C[C@@H](O)CC(=O)O)[C@H]21 [pravastatin]
